Laboratory results reported in PMC8379015, “Resistance of Mycobacterium tuberculosis to indole 4-carboxamides occurs through alterations in drug metabolism and tryptophan biosynthesis” (Cell Chemical Biology, 2021).
Converted amounts (≈) assume the structure as drawn. Where two headings read alike, the source gives them in different places.

What was measured:
M. smegmatis mc2155 = assay: microbe, parasite or virus in culture; assay type: cell-based, Mycobacterium smegmatis; details: for MIC: Mycolicibacterium smegmatis, MC2155, read-out: MIC vs M. smegmatis mc2155
M. tuberculosis H37Rv = assay: microbe, parasite or virus in culture; assay type: cell-based; details: Mycobacterium tuberculosis
TrpAB β reaction = target: T1, TrpAB β reaction (Mycobacterium tuberculosis, UniProt P9WFX9+P9WFY1); assay: biochemical; assay type: biochemical
T1 construct: His6 (N); made in house; host or cells: E. coli BL21(DE3)

TrpAB α reaction = target: T2, TrpAB α reaction (Mycobacterium tuberculosis, UniProt P9WFX9+P9WFY1); assay: biochemical
T2 construct: His6 (N); made in house; host or cells: E. coli BL21(DE3)

Mtb = assay type: cell-based, Mycobacterium tuberculosis
[1] = test system: intracellular Mtb H37Rv in J774 macrophages; assay type: cell-based, Mycobacterium tuberculosis
J774 macrophages = details: 24 hrs, CellTiter-Glo
TrpE WT = target: T3, TrpE WT (Mycobacterium tuberculosis, UniProt P9WFX3); assay type: biochemical
T3 construct: His6 (N); made in house; host or cells: E. coli BL21(DE3)
T3 sequence (P9WFX3 1-516): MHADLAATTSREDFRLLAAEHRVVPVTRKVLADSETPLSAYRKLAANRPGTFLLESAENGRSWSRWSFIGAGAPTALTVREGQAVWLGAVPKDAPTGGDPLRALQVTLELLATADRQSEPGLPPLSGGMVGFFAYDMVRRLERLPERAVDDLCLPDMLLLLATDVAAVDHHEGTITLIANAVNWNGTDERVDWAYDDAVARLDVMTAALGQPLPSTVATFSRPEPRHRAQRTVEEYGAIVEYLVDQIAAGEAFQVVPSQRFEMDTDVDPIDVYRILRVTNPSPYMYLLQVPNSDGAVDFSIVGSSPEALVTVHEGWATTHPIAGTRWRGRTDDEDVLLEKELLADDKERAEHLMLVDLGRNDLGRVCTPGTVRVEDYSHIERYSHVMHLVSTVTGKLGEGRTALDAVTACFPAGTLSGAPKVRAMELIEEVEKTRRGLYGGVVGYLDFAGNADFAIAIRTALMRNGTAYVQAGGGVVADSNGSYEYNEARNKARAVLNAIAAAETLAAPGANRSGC

M. bovis BCG = assay: microbe, parasite or virus in culture; assay type: cell-based, Mycobacterium bovis BCG
TrpAB WT = target: T4, TrpAB WT (Mycobacterium tuberculosis, UniProt P9WFX9+P9WFY1); assay type: biochemical
T4 construct: His6 (N); made in house; host or cells: E. coli BL21(DE3)

TrpE = test system: TrpE; design: method as in Negatu et al., 2019; details: ref Negatu et al., 2019; read-out: IC50 TrpE (allosteric inhibition); cited from earlier work

T1 sequence (P9WFX9 whole entry): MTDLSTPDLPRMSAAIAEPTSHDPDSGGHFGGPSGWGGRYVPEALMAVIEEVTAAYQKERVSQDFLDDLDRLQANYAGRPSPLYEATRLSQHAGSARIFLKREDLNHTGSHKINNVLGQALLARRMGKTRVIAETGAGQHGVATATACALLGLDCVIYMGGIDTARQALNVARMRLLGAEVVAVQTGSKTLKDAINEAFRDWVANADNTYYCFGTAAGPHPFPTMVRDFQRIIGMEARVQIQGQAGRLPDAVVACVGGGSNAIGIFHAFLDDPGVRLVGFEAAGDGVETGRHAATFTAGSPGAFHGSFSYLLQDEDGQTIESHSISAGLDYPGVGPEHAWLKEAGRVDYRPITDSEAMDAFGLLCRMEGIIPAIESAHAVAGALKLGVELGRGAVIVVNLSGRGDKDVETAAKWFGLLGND
T1 sequence (P9WFY1 whole entry): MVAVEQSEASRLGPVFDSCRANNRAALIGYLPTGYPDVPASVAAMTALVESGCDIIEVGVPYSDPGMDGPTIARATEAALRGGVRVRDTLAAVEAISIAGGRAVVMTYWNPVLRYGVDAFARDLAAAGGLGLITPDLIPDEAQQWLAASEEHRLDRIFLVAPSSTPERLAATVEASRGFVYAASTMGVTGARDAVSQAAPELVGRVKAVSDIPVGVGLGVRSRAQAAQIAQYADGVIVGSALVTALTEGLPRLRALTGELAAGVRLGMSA
T2 sequence (P9WFX9 whole entry): as the sequence (P9WFX9 whole entry) above
T2 sequence (P9WFY1 whole entry): as the sequence (P9WFY1 whole entry) above
T4 sequence (P9WFX9 whole entry): as the sequence (P9WFX9 whole entry) above
T4 sequence (P9WFY1 whole entry): as the sequence (P9WFY1 whole entry) above

Molecule | MIC (M. tuberculosis H37Rv; read-out: MIC) [µM] | MIC (M. tuberculosis H37Rv) [µM] | also measured
O=C(Nc1cccc2[nH]ccc12)c1ccc(OCC(F)(F)F)cn1 [C4, N-(1H-indol-4-yl)-5-(2,2,2-trifluoroethoxy)picolinamide] | – | – | MIC (M. smegmatis mc2155): > 100 µM
CN(CC(F)(F)F)c1ccc(C(=O)Nc2cccc3[nH]ccc23)cn1 [C20, N-(1H-indol-4-yl)-6-(methyl(2,2,2-trifluoroethyl)amino)nicotinamide] | 4.7 (≈ 1.64 µg/mL) | – | –
Cc1ccc(C(=O)Nc2cccc3[nH]ccc23)o1 [C21, N-(1H-indol-4-yl)-5-methylfuran-2-carboxamide] | 6.25 (≈ 1.5 µg/mL) | – | –
Nc1cccc2[nH]ccc12 [4-AI, 4-aminoindole, reference compound] | – | 4.68 (≈ 0.619 µg/mL) | IC50 (TrpAB β reaction): 649.4 ± 2.5 µM; IC50 (TrpAB α reaction): 631 ± 174 µM; increase of MIC on supplementation (Mtb): 4- to 16 fold; MIC (M. tuberculosis H37Rv; read-out: MIC against Mtb): 4.68 µM (≈ 0.619 µg/mL)
O=C(O)c1ccc(OCC(F)(F)F)nc1 [C1-COOH, 6-(2,2,2-trifluoroethoxy)nicotinic acid] | – | 50 (≈ 11.1 µg/mL) | –
CNS(=O)(=O)c1ccc2c(c1)CCN2C(=O)c1ccc(C)s1 [C5, reference compound] | 0.39 (≈ 0.131 µg/mL) | – | IC50 (TrpAB β reaction): 0.37 ± 0.07 µM; IC50 (TrpAB α reaction): 0.1 ± 0.06 µM; potency with exogenous indole or L-Trp (Mtb): significantly attenuated
N-(1H-indol-4-yl)-6-(2,2,2-trifluoroethoxy)nicotinamide [C1] | – | – | reduction in intracellular Mtb titer [1]: 1.5 log; toxicity to J774 macrophages (J774 macrophages): not toxic; IC50 (TrpE WT): 242 ± 53 µM; MIC vs M. smegmatis mc2155 (M. smegmatis mc2155): > 100 µM
O=C(Nc1cccc2[nH]cnc12)c1ccc(OCC(F)(F)F)cn1 [C14, N-(1H-benzo[d]imidazol-4-yl)-5-(2,2,2-trifluoroethoxy)picolinamide] | 50 (≈ 16.8 µg/mL) | – | –
O=C(Nc1cccc2[nH]ccc12)[C@H]1C[C@@H](Oc2ccccc2)C1 [C19, (1s,3s)-N-(1H-indol-4-yl)-3-phenoxycyclobutane-1-carboxamide] | 3.13 (≈ 0.959 µg/mL) | – | –
O=C(Nc1cccc2[nH]ccc12)C1CCCCC1 [C3, N-(1H-indol-4-yl)cyclohexanecarboxamide] | 12.5 (≈ 3.03 µg/mL) | – | MIC vs M. bovis BCG (M. bovis BCG): 50 µM (≈ 12.1 µg/mL); MIC (M. bovis BCG; Mycobacterium tuberculosis variant bovis BCG, BCG, read-out: MIC vs M. bovis BCG): > 100 µM; MIC (M. smegmatis mc2155): > 100 µM
O=P(O)(O)OC[C@@H](O)[C@H](O)c1c[nH]c2ccccc12 [IGP, indole-3-glycerol phosphate] | – | – | Km (TrpAB WT; read-out: apparent KM IGP): 76.9 ± 1.1 µM
Cn1ccc2c(NC(=O)c3ccc(OCC(F)(F)F)nc3)cccc21 [C9, N-(1-methyl-1H-indol-4-yl)-6-(2,2,2-trifluoroethoxy)nicotinamide] | – | 50 (≈ 17.5 µg/mL) | –
O=C(O)COc1ccccc1 [C2-COOH, 2-phenoxyacetic acid] | – | > 100 | –
O=C(COc1ccccc1)Nc1cccc2[nH]ccc12 [C2, N-(1H-indol-4-yl)-2-phenoxyacetamide] | – | – | MIC (M. smegmatis mc2155): > 100 µM
Cc1ccc(OCC(=O)Nc2cccc3[nH]ccc23)cc1 [C17, N-(1H-indol-4-yl)-2-(p-tolyloxy)acetamide] | 1.56 (≈ 0.437 µg/mL) | – | –
O=C(O)c1ccc(OCC(F)(F)F)cn1 [C4-COOH, 5-(2,2,2-trifluoroethoxy)picolinic acid] | – | > 100 | –

Molecule | MIC (M. tuberculosis H37Rv; read-out: MIC) [µM] | MIC (M. tuberculosis H37Rv) [µM] | also measured
O=C(Nc1ccc2[nH]ccc2c1)c1ccc(OCC(F)(F)F)nc1 [C6, N-(1H-indol-5-yl)-6-(2,2,2-trifluoroethoxy)nicotinamide] | – | 50 (≈ 16.8 µg/mL) | –
N[C@@H](Cc1c[nH]c2ccc(F)cc12)C(=O)O [5-fluorotryptophan] | – | – | IC50 (TrpE): 4 µM
O=C(Nc1ccnc2[nH]ccc12)c1ccc(OCC(F)(F)F)cn1 [C15, N-(1H-pyrrolo[2,3-b]pyridin-4-yl)-5-(2,2,2-trifluoroethoxy)picolinamide] | 50 (≈ 16.8 µg/mL) | – | –
FC(F)(F)COc1ccc(CNc2cccc3[nH]ccc23)cn1 [C10, N-((6-(2,2,2-trifluoroethoxy)pyridin-3-yl)methyl)-1H-indol-4-amine] | – | 50 (≈ 16.1 µg/mL) | –
Nc1cccc2[nH]cc(C[C@H](N)C(=O)O)c12 [4-aTrp, 4-amino-L-tryptophan] | – | – | MIC (M. tuberculosis H37Rv; read-out: MIC against Mtb): > 100 µM
O=C(Nc1cccc2[nH]ccc12)c1ccc(OCC(F)(F)F)nn1 [C16, N-(1H-indol-4-yl)-6-(2,2,2-trifluoroethoxy)pyridazine-3-carboxamide] | 2.3 (≈ 0.773 µg/mL) | – | –
O=C(Nc1cccc2c1CCN2)c1ccc(OCC(F)(F)F)nc1 [C12, N-(indolin-4-yl)-6-(2,2,2-trifluoroethoxy)nicotinamide] | – | 50 (≈ 16.9 µg/mL) | –
O=C(Nc1cccc2cc[nH]c12)c1ccc(OCC(F)(F)F)nc1 [C8, N-(1H-indol-7-yl)-6-(2,2,2-trifluoroethoxy)nicotinamide] | – | 9.4 (≈ 3.15 µg/mL) | –
N[C@@H](CO)C(=O)O [L-Ser, L-serine] | – | – | Km (TrpAB β reaction; read-out: KM L-Ser of TrpAB β-half reaction): 2900 ± 300 µM; Km (TrpAB WT; read-out: apparent KM L-Ser): 550 ± 230 µM
NNC(=O)c1ccncc1 [INH, isoniazid, reference compound] | 0.16 (≈ 0.0219 µg/mL) | – | –
O=C(Nc1ccc(OCC(F)(F)F)nc1)c1cccc2[nH]ccc12 [C11, N-(6-(2,2,2-trifluoroethoxy)pyridine-3-yl)-1H-indole-4-carboxamide] | – | 50 (≈ 16.8 µg/mL) | –
O=C(Nc1ccc2cc[nH]c2c1)c1ccc(OCC(F)(F)F)nc1 [C7, N-(1H-indol-6-yl)-6-(2,2,2-trifluoroethoxy)nicotinamide] | – | 50 (≈ 16.8 µg/mL) | –
O=C(O)C1CCCCC1 [C3-COOH, cyclohexanecarboxylic acid] | – | > 100 | –
CN(C(=O)c1ccc(OCC(F)(F)F)nc1)c1cccc2[nH]ccc12 [C13, N-(1H-indol-4-yl)-N-methyl-6-(2,2,2-trifluoroethoxy)nicotinamide] | 25 (≈ 8.73 µg/mL) | – | –
O=C(COCC1CC1)Nc1cccc2[nH]ccc12 [C18, 2-(cyclopropylmethoxy)-N-(1H-indol-4-yl)acetamide] | 3.13 (≈ 0.765 µg/mL) | – | –
